Assay results as given in patent US7402548B2, “Benzoxazole compounds, process for producing the same and herbicides” (Kyoyu Agri Co., Ltd., priority 2000, dated 2008).

Tests used:
barnyardgrjass = experiment: Foliar spread test for upland field; assay type: in vivo, Eschinochloa crusgalli; set-up: key: 0 = normal development, 5 = all killed (6 ranks vs. untreated); conditions: foliar spray, 500 ppm, 3 weeks, glass house 25° C.
Procedure: (§1) The herbicidal effects are evaluated according to the following 6 ranks as compared with non-treated district. (0: normal development, 1: Less damaged, 2: Slightly damaged, 3: Moderately damaged, 4: Severely damaged, 5: All killed). Incidentally, “-” in the column means not investigated.
(§2) Wagner pots, each having an area of 1/5000 are, were packed with volcanic ash soil and then each seed of corn, soybean, cotton, wheat, solgum, sugar beat, Large crabgrass, barnyardgrjass, green foxtail, blackgrass, annual bluegrass, common lambsquarters, livid amaranth, velvetleaf, morning glory, Xanthium pensylvanicum and Cassia obtusifolia was planted, covered with soil and grown in a glass house at an average temperature of 25° C. for about 2 weeks.
(§3) Each wettable powder of the desired compounds (I) shown in Tables 1 to 21, 24, 25, 28 and 29 prepared in accordance with Example 2 was diluted to 500 ppm with water containing a surfactant (0.5%) and then uniformly sprayed on the above respective plants.
(§4) After these plants were controlled in a glass house at an average temperature of 25° C. for 3 weeks, the herbicidal effects thereof were investigated.
(§5) The herbicidal effects were evaluated according to the evaluation method described in the above (1).

livid amaranth [1] = experiment: Soil treatment test for upland field; assay type: in vivo, Amaranthus lividus; set-up: key: 0 = normal development, 5 = all killed; conditions: 500 g/ha, 3 weeks, glass house 25° C.
Procedure: as §1
(§6) Wagner pots, each having an area of 1/5000 are, were packed with Ube soil (alluvial soil), and then each seed of corn, soybean, cotton, wheat, solgum, sugar beat, Large crabgrass, barnyard grass, green foxtail, blackgrass, annual bluegrass, common lambsquarters, livid amaranth, velvetleaf, morning glory, common Cocklebur (Xanthium strumarium) and sicklepod (Cassia obtusifolia) were planted and covered with soil.
(§7) Each wettable powder of the desired compounds (I) shown in Tables 1 to 21, 24, 25, 28 and 29 prepared in accordance with Example 2 was diluted with water containing a surfactant (0.05%) and uniformly sprayed on the surface of each soil so that an effective concentration of the compound (I) in each herbicide became 500 g/ha.
(§8) These plants were controlled in a glass house at an average temperature of 25° C. for 3 weeks, and then herbicidal effects thereof were investigated.
as §5

common lambsquarters [2] = experiment: Soil treatment test for upland field; assay type: in vivo, Chenopodium album; set-up: key: 0 = normal development, 5 = all killed; conditions: 500 g/ha, 3 weeks, glass house 25° C.
Procedure: as §1, §6, §7, §8, §5

livid amaranth [3] = experiment: Foliar spread test for upland field; assay type: in vivo, Amaranthus lividus; set-up: key: 0 = normal development, 5 = all killed (6 ranks vs. untreated); conditions: foliar spray, 500 ppm, 3 weeks, glass house 25° C.
Procedure: as §1, §2, §3, §4, §5

blackgrass [4] = experiment: Soil treatment test for upland field; assay type: in vivo, Alopecurus aegualis; set-up: key: 0 = normal development, 5 = all killed; conditions: 500 g/ha, 3 weeks, glass house 25° C.
Procedure: as §1, §6, §7, §8, §5

morning glory [5] = experiment: Soil treatment test for upland field; assay type: in vivo, Ipomoea spps.; set-up: key: 0 = normal development, 5 = all killed; conditions: 500 g/ha, 3 weeks, glass house 25° C.
Procedure: as §1, §6, §7, §8, §5

barnyard grass = experiment: Soil treatment test for upland field; assay type: in vivo, Eschinochloa crusgalli; set-up: key: 0 = normal development, 5 = all killed; conditions: 500 g/ha, 3 weeks, glass house 25° C.
Procedure: as §1, §6, §7, §8, §5

Large crabgrass [6] = experiment: Soil treatment test for upland field; assay type: in vivo, Digitaria adscendens; set-up: key: 0 = normal development, 5 = all killed; conditions: 500 g/ha, 3 weeks, glass house 25° C.
Procedure: as §1, §6, §7, §8, §5

morning glory [7] = experiment: Foliar spread test for upland field; assay type: in vivo, Ipomoea spps.; set-up: key: 0 = normal development, 5 = all killed (6 ranks vs. untreated); conditions: foliar spray, 500 ppm, 3 weeks, glass house 25° C.
Procedure: as §1, §2, §3, §4, §5

common lambsquarters [8] = experiment: Foliar spread test for upland field; assay type: in vivo, Chenopodium album; set-up: key: 0 = normal development, 5 = all killed (6 ranks vs. untreated); conditions: foliar spray, 500 ppm, 3 weeks, glass house 25° C.
Procedure: as §1, §2, §3, §4, §5

green foxtail [9] = experiment: Soil treatment test for upland field; assay type: in vivo, Setaria viridis; set-up: key: 0 = normal development, 5 = all killed; conditions: 500 g/ha, 3 weeks, glass house 25° C.
Procedure: as §1, §6, §7, §8, §5

blackgrass [10] = experiment: Foliar spread test for upland field; assay type: in vivo, Alopecurus aegualis; set-up: key: 0 = normal development, 5 = all killed (6 ranks vs. untreated); conditions: foliar spray, 500 ppm, 3 weeks, glass house 25° C.
Procedure: as §1, §2, §3, §4, §5

corn [11] = experiment: Soil treatment test for upland field; assay type: in vivo; set-up: key: 0 = normal development, 5 = all killed; conditions: 500 g/ha, 3 weeks, glass house 25° C.
Procedure: as §1, §6, §7, §8, §5

wheat [12] = experiment: Soil treatment test for upland field; assay type: in vivo; set-up: key: 0 = normal development, 5 = all killed; conditions: 500 g/ha, 3 weeks, glass house 25° C.
Procedure: as §1, §6, §7, §8, §5

solgum [13] = experiment: Soil treatment test for upland field; assay type: in vivo; set-up: key: 0 = normal development, 5 = all killed; conditions: 500 g/ha, 3 weeks, glass house 25° C.
Procedure: as §1, §6, §7, §8, §5

velvetleaf [14] = experiment: Soil treatment test for upland field; assay type: in vivo, Abutilon theophrasti; set-up: key: 0 = normal development, 5 = all killed; conditions: 500 g/ha, 3 weeks, glass house 25° C.
Procedure: as §1, §6, §7, §8, §5

green foxtail [15] = experiment: Foliar spread test for upland field; assay type: in vivo, Setaria viridis; set-up: key: 0 = normal development, 5 = all killed (6 ranks vs. untreated); conditions: foliar spray, 500 ppm, 3 weeks, glass house 25° C.
Procedure: as §1, §2, §3, §4, §5

corn [16] = experiment: Foliar spread test for upland field; assay type: in vivo; set-up: key: 0 = normal development, 5 = all killed (6 ranks vs. untreated); conditions: foliar spray, 500 ppm, 3 weeks, glass house 25° C.
Procedure: as §1, §2, §3, §4, §5

wheat [17] = experiment: Foliar spread test for upland field; assay type: in vivo; set-up: key: 0 = normal development, 5 = all killed (6 ranks vs. untreated); conditions: foliar spray, 500 ppm, 3 weeks, glass house 25° C.
Procedure: as §1, §2, §3, §4, §5

sugar beat [18] = experiment: Foliar spread test for upland field; assay type: in vivo; set-up: key: 0 = normal development, 5 = all killed (6 ranks vs. untreated); conditions: foliar spray, 500 ppm, 3 weeks, glass house 25° C.
Procedure: as §1, §2, §3, §4, §5

solgum [19] = experiment: Foliar spread test for upland field; assay type: in vivo; set-up: key: 0 = normal development, 5 = all killed (6 ranks vs. untreated); conditions: foliar spray, 500 ppm, 3 weeks, glass house 25° C.
Procedure: as §1, §2, §3, §4, §5

soybean = experiment: Foliar spread test for upland field; assay type: in vivo; set-up: key: 0 = normal development, 5 = all killed (6 ranks vs. untreated); conditions: foliar spray, 500 ppm, 3 weeks, glass house 25° C.
Procedure: as §1, §2, §3, §4, §5

cotton = experiment: Foliar spread test for upland field; assay type: in vivo; set-up: key: 0 = normal development, 5 = all killed (6 ranks vs. untreated); conditions: foliar spray, 500 ppm, 3 weeks, glass house 25° C.
Procedure: as §1, §2, §3, §4, §5

Large crabgrass [20] = experiment: Foliar spread test for upland field; assay type: in vivo, Digitaria adscendens; set-up: key: 0 = normal development, 5 = all killed (6 ranks vs. untreated); conditions: foliar spray, 500 ppm, 3 weeks, glass house 25° C.
Procedure: as §1, §2, §3, §4, §5

annual bluegrass [21] = experiment: Foliar spread test for upland field; assay type: in vivo, Poa annua; set-up: key: 0 = normal development, 5 = all killed (6 ranks vs. untreated); conditions: foliar spray, 500 ppm, 3 weeks, glass house 25° C.
Procedure: as §1, §2, §3, §4, §5

velvetleaf [22] = experiment: Foliar spread test for upland field; assay type: in vivo, Abutilon theophrasti; set-up: key: 0 = normal development, 5 = all killed (6 ranks vs. untreated); conditions: foliar spray, 500 ppm, 3 weeks, glass house 25° C.
Procedure: as §1, §2, §3, §4, §5

annual bluegrass [23] = experiment: Soil treatment test for upland field; assay type: in vivo, Poa annua; set-up: key: 0 = normal development, 5 = all killed; conditions: 500 g/ha, 3 weeks, glass house 25° C.
Procedure: as §1, §6, §7, §8, §5

sugar beat [24] = experiment: Soil treatment test for upland field; assay type: in vivo; set-up: key: 0 = normal development, 5 = all killed; conditions: 500 g/ha, 3 weeks, glass house 25° C.
Procedure: as §1, §6, §7, §8, §5

| SMILES | Effects Barnyardgrass (barnyardgrjass) | Effects Livid amaranth (livid amaranth [1]) | Effects Common lambsquarters (common lambsquarters [2]) | Effects Livid amaranth (livid amaranth [3]) | Effects Blackgrass (blackgrass [4]) | Effects Morning glory (morning glory [5]) | Effects Barnyardgrass (barnyard grass) | Effects Large crabgrass (Large crabgrass [6]) | Effects Morning glory (morning glory [7]) | Effects Common lambsquarters (common lambsquarters [8]) | Effects Green foxtail (green foxtail [9]) | Effects Blackgrass (blackgrass [10]) | Effects Corn (corn [11]) | Effects Wheat (wheat [12]) | Effects Solgum (solgum [13]) | Effects Green foxtail (green foxtail [15]) | Effects Corn (corn [16]) | Effects Wheat (wheat [17]) | Effects Sugar beat (sugar beat [18]) | Effects Solgum (solgum [19]) | further results |
| --- | --- | --- | --- | --- | --- | --- | --- | --- | --- | --- | --- | --- | --- | --- | --- | --- | --- | --- | --- | --- | --- |
| CCCC(=Cc1cccc(C(F)(F)F)c1)c1nc2cc(Cl)ccc2o1 [I-c-57] | 3 | 5 | 5 | 4 | 5 | 3 | 5 | 5 | 5 | 5 | 5 | 3 | 2 | 2 | 2 | 5 | 2 | 2 | 3 | 2 | Effects Velvetleaf (velvetleaf [14]): 5; Effects Soybean (soybean): 5; Effects Sotton (cotton): 4; Effects Large crabgrass (Large crabgrass [20]): 4; Effects Annual bluegrass (annual bluegrass [21]): 4; Effects Velvetleaf (velvetleaf [22]): 3; Effects Annual bluegrass (annual bluegrass [23]): 5 |
| CCCC(=Cc1cccc(C(F)(F)F)c1)c1nc2cc(F)ccc2o1 [I-c-44] | 2 | 5 | 5 | 5 | 5 | 2 | 5 | 5 | 5 | 5 | 5 | 3 | 2 | 2 | 3 | 4 | 2 | 2 | 3 | 2 | Effects Sugar beat (sugar beat [24]): 5; Effects Velvetleaf (velvetleaf [14]): 3; Effects Soybean (soybean): 5; Effects Sotton (cotton): 3; Effects Large crabgrass (Large crabgrass [20]): 4; Effects Annual bluegrass (annual bluegrass [21]): 4; Effects Velvetleaf (velvetleaf [22]): 2; Effects Annual bluegrass (annual bluegrass [23]): 5 |
| CC(=Cc1cccc(C(F)(F)F)c1)c1nc2cc(F)ccc2o1 [I-c-40] | 1 | 5 | 5 | 4 | 4 | 3 | 5 | 5 | 3 | 4 | 5 | 2 | 0 | 0 | 2 | 2 | 2 | 1 | 4 | 1 | Effects Sugar beat (sugar beat [24]): 1; Effects Soybean (soybean): 4; Effects Sotton (cotton): 1; Effects Large crabgrass (Large crabgrass [20]): 3; Effects Annual bluegrass (annual bluegrass [21]): 2; Effects Velvetleaf (velvetleaf [22]): 1; Effects Annual bluegrass (annual bluegrass [23]): 5 |
| CCCC(=Cc1cccc(C(F)(F)F)c1)c1nc2cc(C#N)ccc2o1 [I-c-83] | 2 | 5 | 5 | 5 | 5 | 5 | 4 | 5 | 5 | 5 | 5 | 4 | 2 | 1 | 1 | 5 | 3 | 2 | 5 | 3 | Effects Sugar beat (sugar beat [24]): 5; Effects Velvetleaf (velvetleaf [14]): 5; Effects Soybean (soybean): 4; Effects Sotton (cotton): 5; Effects Large crabgrass (Large crabgrass [20]): 4; Effects Annual bluegrass (annual bluegrass [21]): 4; Effects Velvetleaf (velvetleaf [22]): 4; Effects Annual bluegrass (annual bluegrass [23]): 5 |
